Values belong to the compound of their own block, whether it stands above or below them.
Key:
[1] = target: PRMT5/MEP50 (Homo sapiens, UniProt O14744); test: PRMT5/MEP50 radioactive assay, 3H transfer from SAM to H4 peptide / protein substrate; type: biochemical; conditions: close analogs of Compound C
[2] = test system: Type I and Type II PRMTs and lysine methyltransferases (KMTs); test: Methyltransferase selectivity panel (19 enzymes); type: biochemical; conditions: for selectivity for PRMT5/MEP50 over the other methyltransferases: PRMT5 tool compounds
From the text: FIG. 6: Phylogenetic tree highlighting the methyltransferases tested in the selectivity panel. […] PRMT9 is shown for relationship purposes only within the family tree and was not evaluated in the panel. Figure adapted from Richon V M. et al.
PRMT9/FBXO11, which is the other Type II PRMT and the only PRMT to lack the THW loop, was not included due to the lack of a functional enzyme assay.

[3] = test system: breast and MCL cell lines; test: Longer-term (10-12 day) growth/death assay in breast and MCL cell lines; type: cell-based; conditions: for response upon prolonged exposure: SKBR3, MDA-MB-468 and MCF-7 cells, 7-10 days
[4] = test system: SDMA, MDM4 splicing, p53 in GBM and lymphoma cell lines; test: SDMA, MDM4 splicing and p53 in GBM and lymphoma cell lines; type: cell-based; conditions: 1 μM
Protocol: Next, effects on cellular methylation and the p53 pathway were evaluated in GBM cells treated with a PRMT5 inhibitor by measuring SDMA, p53 and p21 protein levels and MDM4 splicing (FIG. 27). […] Alternative MDM4 splicing was detected in all cell lines but SF539 which are p53 mutant and have low basal expression of the long MDM4 isoform (FIG. 27, panel A). p53 levels increased in all cell lines, while the induction of p21 protein was observed only in cell lines that have wild-type p53 (Z138 (MCL), U87-MG and A172 (GBM)). […] The role of p53 in the response of GBM cell lines to PRMT5 inhibition will be further tested in future studies. Additionally, the effects of PRMT5 inhibition on cell cycle and neural differentiation in GBM models are being explored.

[5] = test system: lymphoma cell lines (Z138, Granta-519, DOHH2, RL); test: RNA-sequencing of lymphoma cell lines; type: cell-based
Protocol: FIG. 12: Gene expression changes in lymphoma cell lines treated with a PRMT5 inhibitor. A. Quantification of differentially expressed (DE) genes in lymphoma cell lines after Compound B (0.1 and 0.5 μM) treatment (days 2 and 4). B. Overlap of DE genes across lymphoma lines.
A. Mechanisms of regulation of cellular splicing (adapted from Bezzi M. et al.). B. Analysis of intron expression in lymphoma lines treated with 0.1 or 0.5 μM Compound B.
A. Quantification of isoform switches in 4 lymphoma cell lines treated with Compound B (0.1 and 0.5 μM) for 2 and 4 days. B. Overlap of isoform switches in 4 lymphoma lines. C. List of genes that undergo alternative splicing in all 4 lymphoma lines (overlap of 4 cell lines).
PRMT5 methylates histones and proteins involved in RNA processing and therefore PRMT5 inhibition is expected to have a profound effect on cellular mRNA homeostasis. To further decipher cellular mechanisms that are regulated by PRMT5 and contribute to the cellular response to PRMT5 inhibitors, global gene expression changes were evaluated in lymphoma models sensitive to PRMT5 inhibition. […]
First, gene expression changes were evaluated in lymphoma lines treated with increasing concentrations of PRMT5 tool molecule for 2 and 4 days (FIG. 12). […] The relevance of these genes in the mechanism of cellular response to PRMT5 inhibition is being evaluated. […]

[6] = test system: MDM4 splicing, p53 and p21 in MCL lines; test: MDM4 splicing (RT-PCR) and p53/p21 western in MCL lines; type: cell-based; conditions: for p53 and p21 expression: Z138 cells, 200 nM Compound C, 5 μM Nutlin-3
Protocol: To understand whether p53 activation is associated with MDM4 isoform switching, MDM4 alternative splicing was analyzed. […] The role of the p53 pathway in the biology of the response of p53 wild-type MCL cells to PRMT5 inhibition is being evaluated.

[7] = test system: panel of cancer cell lines; type: cell-based
From the text: DLBCL-diffuse large B-cell lymphoma, GBM-glioblastoma, MCL-mantle cell lymphoma, MM-multiple myeloma
The cell lines were selected to represent tumor types where PRMT5 activity has been reported to regulate key pathways and/or cell growth and survival (such as lymphoma and MCL, glioma, breast and lung cancer lines).

[8] = test system: MCL cell lines; test: 6-day growth/death assay in a panel of MCL lines; type: cell-based
From the text: FIG. 18: Activity of PRMT5 inhibitor and ibrutinib as single agents and in combination in MCL cell lines. […] C.
• The strongest mechanistic link currently described between PRMT5 and cancer is in MCL. PRMT5 is frequently overexpressed in MCL and is highly expressed in the nuclear compartment where it increases levels of histone methylation and silences a subset of tumor suppressor genes. Importantly, cyclin D1, the oncogene that is translocated in the vast majority of MCL patients, associates with PRMT5 and through a cdk4-dependent mechanism increases PRMT5 activity. PRMT5 mediates the suppression of key genes that negatively regulate DNA replication allowing for cyclin D1-dependent neoplastic growth. PRMT5 knockdown inhibits cyclin D1-dependent cell transformation causing death of tumor cells.

[9] = test system: GBM cell lines; test: 2D 6-day growth/death CTG assay in GBM cell lines; type: cell-based; conditions: with the exception of SF539
[10] = test system: SDMA, MDM4 splicing, p53/p21 in Z138 cells; test: Dose-response of MDM4 splicing, SDMA and p53/p21 in Z138 cells; type: cell-based
[11] = test system: Z-138 MCL xenograft; test: 21-day efficacy study in Z-138 MCL xenograft model; type: in vivo
Protocol: B. Quantified SDMA western data from tumors harvested at the end of the efficacy study (3 hours post last dose).

[12] = test system: breast cancer lines; test: Propidium iodide FACS cell cycle analysis of breast cancer lines; type: cell-based
[13] = test system: MDA-MB-468 xenograft; test: MDA-MB-468 triple negative breast cancer xenograft model; type: in vivo
Protocol: Next, the efficacy of PRMT5 inhibition was evaluated in in vivo models of breast cancer.

[14] = test system: GBM cell lines; test: 2D 14-day growth/death CTG assay in GBM cell lines; type: cell-based; conditions: only SF539 underwent apoptosis
[15] = Z-138 (MCL) cells, all time points (days 3-10)
[16] = ZR-75-1 cells, all time points (days 3-12)

Chain of PRMT5/MEP50 (O14744 whole entry): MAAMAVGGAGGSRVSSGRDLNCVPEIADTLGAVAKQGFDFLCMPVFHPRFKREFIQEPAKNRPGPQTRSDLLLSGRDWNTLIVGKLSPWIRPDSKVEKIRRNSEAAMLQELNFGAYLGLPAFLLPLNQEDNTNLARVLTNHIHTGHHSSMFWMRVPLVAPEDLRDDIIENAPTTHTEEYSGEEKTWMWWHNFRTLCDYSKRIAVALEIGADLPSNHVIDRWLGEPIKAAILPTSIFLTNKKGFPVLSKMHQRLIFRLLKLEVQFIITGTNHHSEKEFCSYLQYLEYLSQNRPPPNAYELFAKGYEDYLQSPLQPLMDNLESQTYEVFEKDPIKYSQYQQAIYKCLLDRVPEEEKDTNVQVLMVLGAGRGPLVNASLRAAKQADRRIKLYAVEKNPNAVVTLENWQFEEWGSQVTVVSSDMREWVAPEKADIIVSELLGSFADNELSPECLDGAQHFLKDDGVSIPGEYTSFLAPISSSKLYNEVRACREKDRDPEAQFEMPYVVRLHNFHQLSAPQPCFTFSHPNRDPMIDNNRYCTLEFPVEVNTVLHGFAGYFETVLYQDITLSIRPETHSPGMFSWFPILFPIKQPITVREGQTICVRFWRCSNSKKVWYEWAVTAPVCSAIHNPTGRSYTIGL
Chain of PRMT5/MEP50 (Q9BQA1 whole entry partner): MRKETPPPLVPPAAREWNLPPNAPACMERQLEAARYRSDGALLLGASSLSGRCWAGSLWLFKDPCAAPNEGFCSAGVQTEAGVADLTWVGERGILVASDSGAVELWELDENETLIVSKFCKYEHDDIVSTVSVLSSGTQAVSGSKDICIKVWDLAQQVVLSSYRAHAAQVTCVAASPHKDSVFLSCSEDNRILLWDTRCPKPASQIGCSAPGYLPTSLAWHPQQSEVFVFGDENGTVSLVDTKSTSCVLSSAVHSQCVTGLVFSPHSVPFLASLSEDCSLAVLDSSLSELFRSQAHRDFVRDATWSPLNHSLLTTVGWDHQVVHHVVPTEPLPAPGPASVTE

- inhibitory potency compared with Compound C [1]: similar
SMILES: CC(=O)N1CCC(Nc2cc(C(=O)NC[C@H](O)CN3CCc4ccccc4C3)ccn2)CC1 [Compound F]
- selectivity for PRMT5/MEP50 over the other methyltransferases [2]: Selectivity for PRMT5/MEP50 over the other methyltransferases was also observed

SMILES: O=C(NC[C@H](O)CN1CCc2ccccc2C1)c1ccnc(NC2CCC2)c1 [Compound B]
- inhibitory potency compared with Compound C [1]: similar
- selectivity for PRMT5/MEP50 over the other methyltransferases [2]: Selectivity for PRMT5/MEP50 over the other methyltransferases was also observed
- response upon prolonged exposure [3]: cytotoxic response
- response [3, 15]: profound overall net cell death
- response [3, 16]: cytostatic response
- MDM4 splicing [4]: induces alternative splicing of MDM4
- SDMA levels [4]: decreases SDMA levels
- p53 [4]: activates p53
- isoform switching ([5]; 0.1 and 0.5 μM, 2 and 4 days): induces isoform switching for a subset of genes
- intron splicing ([5]; 0.1 or 0.5 μM): attenuates the splicing of a subset of introns

- inhibitory potency compared with Compound C [1]: similar
SMILES: O=C(NC[C@H](O)CN1CCc2ccccc2C1)c1cc(NC2COC2)ncn1 [Compound E]
- selectivity for PRMT5/MEP50 over the other methyltransferases [2]: Selectivity for PRMT5/MEP50 over the other methyltransferases was also observed

SMILES: COc1ccc(C2=N[C@@H](c3ccc(Cl)cc3)[C@@H](c3ccc(Cl)cc3)N2C(=O)N2CCNC(=O)C2)c(OC(C)C)c1 [Nutlin-3, reference compound]
- p53 and p21 expression [6]: increased p53 and p21 expression to similar levels

SMILES: CC(=O)N1CCC(Nc2cc(C(=O)NC[C@H](O)CN3CCc4ccccc4C3)ncn2)CC1 [Compound C]
- potency for any other tested enzyme ([2]; FIG. 6 legend): > 10^−5 M
- growth response of breast cancer cell lines ([7]; 6-day growth/death assay): complete growth inhibition
- gIC50 ([7]; most sensitive lymphoma lines (MCL and DLBCL)): single digit
- sensitivity (gIC50) of Z-138, Maver-1 and JVM-2 [8]: low
- sensitivity of Mino, Jeko-1 [8]: only moderately sensitive
- nature of the response [9]: largely cytostatic
- MDM4 isoform switching ([6]; Z138 and JVM-2 cells (both p53 wild-type)): induced MDM4 isoform switching
- p53 and p21 expression [6]: increased p53 and p21 expression to similar levels
- MDM4 RNA splicing and SDMA/p53/p21 levels [10]: induces dose-dependent changes
- concentration above which SDMA levels were undetectable by Western blot [10]: above 8 nM
- concentration above which changes in MDM4 splicing and p53/p21 protein expression were apparent [10]: above 8 nM
- body weight loss ([11]; all groups in all efficacy studies presented): no body weight loss
- TGI ([11]; summary for the xenograft models of mantle cell lymphoma): ~100%
- response upon prolonged exposure [3]: cytotoxic response
- response [3, 15]: profound overall net cell death
- response [3, 16]: cytostatic response
- cell death (increase in <2N) ([12]; 3 out of 4 breast cancer lines, after 7-10 days of treatment): induction of cell death
- cell cycle distribution ([12]; MCF-7 cells (p53 wild-type), day 2): accumulation of cells in G1 phase (2N)
- cell cycle distribution ([12]; MDA-MB-468 and SKBR-3, day 7 or day 10): decrease in G1 (2N) phase
- cell cycle distribution ([12]; ZR-75-1 cells (p53 wild-type)): minor effects on cell cycle distribution
- tumor growth inhibition (TGI) ([13]; 100 mg/kg BID): 83%
- efficacy ([13]; 100 mg/kg QD): not efficacious
- nature of the cytostatic/cytotoxic response upon longer exposure [14]: did not change

Source: patent US20190350931A1, “COMBINATION THERAPY” (GlaxoSmithKline Intellectual Property Development Limited, priority 2016, published 2019)
